Publication PMC5386260, “Acute development of cortical porosity and endosteal naïve bone formation from the daily but not weekly short-term administration of PTH in rabbit” (PLoS ONE, 2017)

Experiments:
Conditions in all cases: rabbit, in vivo
[1] = tested on: kidneys, thyroid and parathyroid; assay: Histopathological examination of kidney, thyroid and parathyroid
Description: Calcein (Dojindo Laboratories, Kumamoto, Japan) was subcutaneously injected into each animal at a dose of 10 mg/kg body weight on days 13 and 5 before sacrifice for bone double labeling (1-7-1-3). After the dosing period, the animals were euthanized by exsanguination under anesthesia using thiopental. The left and right tibiae were collected for a micro-CT analysis and histomorphometry, respectively. The kidneys, thyroid and parathyroid of all animals were collected and fixed in 10% neutral buffered formalin for a histopathological examination. The left tibiae were packed in plastic bags and stored at -30°C until use in a micro-CT analysis and mechanical testing. The right tibiae were fixed in 70% ethanol, stained with Villanueva bone stain, dehydrated in a graded ethanol series, defatted in acetone, and embedded in polymethyl methacrylate (Wako Pure Chemical Industries, Osaka, Japan). Thin ground sections of 10–20 μm in thickness were prepared using a micro cutting machine and a grinding machine (EXAKT, Germany) from a cross-section at a plane that was 3 mm proximal from the tibiofibular junction, and were subjected to bone histomorphometry. Right iliac crest were also fixed in 70% ethanol and processed for Vilanueva bone stain, dehydration, defattation, polymethyl methacrylate embedding and sectioning to 5 μm for three-dimensional second harmonic generation (3D-SHG) imaging. […]

renal function = tested on: renal function
Description: The serum samples collected for measurement of bone metabolic markers were also subjected to biochemical analysis to examine renal function. Serum blood urea nitrogen (BUN) and creatinine were measured using an autoanalyzer (Hitachi 7180 chemistry analyzer; Hitachi Ltd, Tokyo, Japan). Blood samples in all groups were collected at 0, 6, 24 hours after the administration of TPTD on days 1 and 22. Blood samples in the C, […] and […] groups were also collected at days 3 and 7 after on the 1st and 22nd days of administration. The samples were centrifuged at 1700 x g, at 4°C for 15 minutes in tubes with clot activator and serum was collected in order to measure the concentration of osteocalcin.

endosteal bone collagen = tested on: endosteal bone collagen
Description: Calcein (Dojindo Laboratories, Kumamoto, Japan) was subcutaneously injected into each animal at a dose of 10 mg/kg body weight on days 13 and 5 before sacrifice for bone double labeling (1-7-1-3). After the dosing period, the animals were euthanized by exsanguination under anesthesia using thiopental. The left and right tibiae were collected for a micro-CT analysis and histomorphometry, respectively. The kidneys, thyroid and parathyroid of all animals were collected and fixed in 10% neutral buffered formalin for a histopathological examination. The left tibiae were packed in plastic bags and stored at -30°C until use in a micro-CT analysis and mechanical testing. […]
An upright multi-photon excited microscopy system (A1RMP, Nikon Corporation, Japan) situated at the Imaging core facility of The Institute of Medical Science, The University of Tokyo was employed to acquire bone collagen-derived SHG signals and two-photon excited auto-fluorescence signals from Calcein-labeled undecalcified bone sections. […] The detection wavelengths were 420–425 nm and 500–550 nm for the acquisition of collagen-derived SHG signals and auto-fluorescence signals from soft tissue, respectively. […]

CC[C@H](C)[C@H](NC(=O)[C@H](CCC(=O)O)NC(=O)[C@H](CO)NC(=O)[C@@H](NC(=O)[C@@H](N)CO)C(C)C)C(=O)N[C@@H](CCC(N)=O)C(=O)N[C@@H](CC(C)C)C(=O)N[C@@H](CCSC)C(=O)N[C@@H](Cc1cnc[nH]1)C(=O)N[C@@H](CC(N)=O)C(=O)N[C@@H](CC(C)C)C(=O)NCC(=O)N[C@@H](CCCCN)C(=O)N[C@@H](Cc1cnc[nH]1)C(=O)N[C@@H](CC(C)C)C(=O)N[C@@H](CC(N)=O)C(=O)N[C@@H](CO)C(=O)N[C@@H](CCSC)C(=O)N[C@@H](CCC(=O)O)C(=O)N[C@@H](CCCN=C(N)N)C(=O)N[C@H](C(=O)N[C@@H](CCC(=O)O)C(=O)N[C@@H](Cc1c[nH]c2ccccc12)C(=O)N[C@@H](CC(C)C)C(=O)N[C@@H](CCCN=C(N)N)C(=O)N[C@@H](CCCCN)C(=O)N[C@@H](CCCCN)C(=O)N[C@@H](CC(C)C)C(=O)N[C@@H](CCC(N)=O)C(=O)N[C@@H](CC(=O)O)C(=O)N[C@H](C(=O)N[C@@H](Cc1cnc[nH]1)C(=O)N[C@@H](CC(N)=O)C(=O)N[C@@H](Cc1ccccc1)C(=O)O)C(C)C)C(C)C [TPTD, Teriparatide]
general histopathological examination, toxic effects [1]: No obvious toxic effects were observed in any specimens
level of serum blood urea nitrogen (BUN), effect of TPTD (renal function): not significantly affected
level of serum creatinine, effect of TPTD (renal function): not significantly affected
endosteal bone collagen pattern (3D-SHG) (endosteal bone collagen): amorphously short fibers
